We go through two molecules from ChEMBL document CHEMBL1150733, “(+)-Curcuphenol and (+)-Curcudiol, Sesquiterpene Phenols from Shallow and Deep Water Collections of the Marine Sponge Didiscus flavus” (J Nat Prod, 1987).

SMILES strings stand for the structures. In brackets after ≈: the same amount, converted by molar mass.

The IC50 is the concentration at which inhibition is half-maximal.

In experiment [1] the test system is P388. In words: Cytotoxicity against mouse P388 cells. In kind it is functional, cell-based.
For experiment [2], the system named is A549. Description: Cytotoxicity against human A549 cells. In kind it is functional.
In experiment [3] the test system is HCT-8. Description: Cytotoxicity against human HCT8 cells. In kind it is functional.
A short description of experiment [4]: Cytotoxicity against human MDA-MB cells. The class given is functional.
For experiment [5], the system named is Candida albicans. In words: Antifungal activity against Candida albicans. In kind it is functional.

For the molecule `CC(C)=CCC[C@H](C)c1ccc(C)cc1O`, inhibition in experiment [1] was half-maximal at 7 µg/mL (≈ 32.1 µM) (IC50). For the same molecule, the MIC was 10 µg/mL (≈ 45.8 µM) in experiment [2], 0.1 µg/mL (≈ 0.458 µM) in experiment [3], 0.1 µg/mL (≈ 0.458 µM) in experiment [4] and 8 µg/mL (≈ 36.6 µM) in experiment [5].

In experiment [5], `Cc1ccc([C@@H](C)CCCC(C)(C)O)c(O)c1` yielded an MIC of 250 µg/mL (≈ 1060 µM).
